Assay results as given in US10538555B2, “Macrocyclic inhibitors of the PD-1/PD-L1 and CD80(B7-1)/PD-L1 protein/protein interactions” (BRISTOL-MYERS SQUIBB COMPANY, priority 2014, dated 2020).
Where a SMILES comes first, the peptide text is derived from it. Bridges are numbered along the chain shown (N, C = ends). [ ]: non-standard residue; d: D form. Phe(3,4,5-F3) = N[C@@H](Cc1cc(F)c(F)c(F)c1)C(=O)O; NMePhe(4-F) = CN[C@@H](Cc1ccc(F)cc1)C(=O)O; NMeF = CN[C@@H](Cc1ccccc1)C(=O)O; dHyp = O=C(O)[C@H]1C[C@H](O)CN1; NMeNle = CCCC[C@H](NC)C(=O)O; dPip = O=C(O)[C@H]1CCCCN1; Dab = NCC[C@H](N)C(=O)O; Dap = NC[C@H](N)C(=O)O

molecular target: T1, Human PD-L1/PD-1 (Homo sapiens, UniProt Q9NZQ7); assay: HTRF Human PD-L1/PD-1 binding assay (PD-1-Ig/PD-L1-His); conditions: PD-L1-His 10 nM, PD-1-Ig 20 nM; class symbol; read-out: HTRF Human PD-L1/PD-1 Binding Assay IC50 Range
T1 construct: TVMV protease cleavage site (C); made in house; host or cells: HEK293T cells
Summary of the method: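 Soluble HEK293T-expressed proteins: hPD-L1-His 10 nM, hPD-1-Ig 20 nM final. Cpd + PD-L1 15 min, + PD-1 15 min, + Eu anti-Ig 1 nM/APC anti-His 20 nM 30 min. Buffer dPBS, 0.1% BSA, 0.05% Tween-20. TR-FRET 665/620.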

T1 sequence (Q9NZQ7 with tags, fused parts or gaps): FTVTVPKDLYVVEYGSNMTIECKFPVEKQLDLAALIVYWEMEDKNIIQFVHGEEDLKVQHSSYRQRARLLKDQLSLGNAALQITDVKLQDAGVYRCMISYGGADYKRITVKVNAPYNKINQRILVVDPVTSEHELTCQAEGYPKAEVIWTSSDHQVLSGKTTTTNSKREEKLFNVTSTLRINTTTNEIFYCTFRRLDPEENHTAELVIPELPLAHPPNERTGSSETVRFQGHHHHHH

IC50, 1 to 9.9 nM:
CCCC[C@H]1C(=O)N2CCC[C@@H]2C(=O)N[C@@H](CC(=O)O)C(=O)N[C@@H](C(C)C)C(=O)N(C)[C@@H](Cc2ccccc2)C(=O)N[C@@H](CCC(=O)O)C(=O)N2CCCC[C@@H]2C(=O)N[C@@H](Cc2c[nH]c3ccccc23)C(=O)N[C@@H](Cc2ccc(O)cc2)C(=O)N[C@@H](CO)C(=O)N[C@H](C(=O)NCC(N)=O)CSCC(=O)N[C@@H](Cc2cc(F)c(F)c(F)c2)C(=O)N(C)[C@@H](Cc2ccc(F)cc2)C(=O)N1C [Example 10565] ({CH2CO}-[Phe(3,4,5-F3)][NMePhe(4-F)][NMeNle][dP]DV[NMeF]E[dPip]WYSCG-NH2; thioether N-13), CCCC[C@H]1C(=O)N2C[C@@H](O)C[C@@H]2C(=O)N[C@@H](CC(=O)O)C(=O)N[C@@H](C(C)C)C(=O)N(C)[C@@H](Cc2ccccc2)C(=O)N[C@@H](CCC(=O)O)C(=O)N2CCCC[C@@H]2C(=O)N[C@@H](Cc2c[nH]c3ccccc23)C(=O)N[C@@H](Cc2ccc(O)cc2)C(=O)N[C@@H](CCN)C(=O)N[C@H](C(=O)NCC(N)=O)CSCC(=O)N[C@@H](Cc2cc(F)c(F)c(F)c2)C(=O)N(C)[C@@H](Cc2ccc(F)cc2)C(=O)N1C [Example 10566] ({CH2CO}-[Phe(3,4,5-F3)][NMePhe(4-F)][NMeNle][dHyp]DV[NMeF]E[dPip]WY[Dab]CG-NH2; thioether N-13), CCCC[C@H]1C(=O)N2C[C@@H](O)C[C@@H]2C(=O)N[C@@H](CC(=O)O)C(=O)N[C@@H](C(C)C)C(=O)N(C)[C@@H](Cc2ccccc2)C(=O)N[C@@H](CCC(=O)O)C(=O)N2CCCC[C@@H]2C(=O)N[C@@H](Cc2c[nH]c3ccccc23)C(=O)N[C@@H](Cc2ccc(O)cc2)C(=O)N[C@@H](CN)C(=O)N[C@H](C(=O)NCC(N)=O)CSCC(=O)N[C@@H](Cc2cc(F)c(F)c(F)c2)C(=O)N(C)[C@@H](Cc2ccc(F)cc2)C(=O)N1C [Example 10567] ({CH2CO}-[Phe(3,4,5-F3)][NMePhe(4-F)][NMeNle][dHyp]DV[NMeF]E[dPip]WY[Dap]CG-NH2; thioether N-13), CCCC[C@H]1C(=O)N2CCC[C@@H]2C(=O)N[C@@H](CC(=O)O)C(=O)N[C@@H](C(C)C)C(=O)N(C)[C@@H](Cc2ccccc2)C(=O)N[C@@H](CCC(=O)O)C(=O)N2CCCC[C@@H]2C(=O)N[C@@H](Cc2c[nH]c3ccccc23)C(=O)N[C@@H](Cc2ccc(O)cc2)C(=O)N[C@@H](CCN)C(=O)N[C@H](C(=O)NCC(N)=O)CSCC(=O)N[C@@H](Cc2cc(F)c(F)c(F)c2)C(=O)N(C)[C@@H](Cc2ccc(F)cc2)C(=O)N1C [Example 10568] ({CH2CO}-[Phe(3,4,5-F3)][NMePhe(4-F)][NMeNle][dP]DV[NMeF]E[dPip]WY[Dab]CG-NH2; thioether N-13), CCCC[C@H]1C(=O)N2CCC[C@@H]2C(=O)N[C@@H](CC(=O)O)C(=O)N[C@@H](C(C)C)C(=O)N(C)[C@@H](Cc2ccccc2)C(=O)N[C@@H](CCC(=O)O)C(=O)N2CCCC[C@@H]2C(=O)N[C@@H](Cc2c[nH]c3ccccc23)C(=O)N[C@@H](Cc2ccc(O)cc2)C(=O)N[C@@H](CN)C(=O)N[C@H](C(=O)NCC(N)=O)CSCC(=O)N[C@@H](Cc2cc(F)c(F)c(F)c2)C(=O)N(C)[C@@H](Cc2ccc(F)cc2)C(=O)N1C [Example 10569] ({CH2CO}-[Phe(3,4,5-F3)][NMePhe(4-F)][NMeNle][dP]DV[NMeF]E[dPip]WY[Dap]CG-NH2; thioether N-13), CCCC[C@H]1C(=O)N2CCC[C@@H]2C(=O)N[C@@H](CC(=O)O)C(=O)N[C@@H](C(C)C)C(=O)N(C)[C@@H](Cc2ccccc2)C(=O)N[C@@H](CC(=O)O)C(=O)N2CCCC[C@@H]2C(=O)N[C@@H](Cc2c[nH]c3ccccc23)C(=O)N[C@@H](Cc2ccc(O)cc2)C(=O)N[C@@H](CC(C)C)C(=O)N[C@H](C(=O)NCC(N)=O)CSCC(=O)N[C@@H](Cc2cc(F)c(F)c(F)c2)C(=O)N(C)[C@@H](Cc2ccc(F)cc2)C(=O)N1C [Example 10570] ({CH2CO}-[Phe(3,4,5-F3)][NMePhe(4-F)][NMeNle][dP]DV[NMeF]D[dPip]WYLCG-NH2; thioether N-13), CCCC[C@H]1C(=O)N2CCC[C@@H]2C(=O)N[C@@H](CC(=O)O)C(=O)N[C@@H](C(C)C)C(=O)N(C)[C@@H](Cc2ccccc2)C(=O)N[C@@H](CC(=O)O)C(=O)N2CCCC[C@@H]2C(=O)N[C@@H](Cc2c[nH]c3ccccc23)C(=O)N[C@@H](Cc2ccc(O)cc2)C(=O)N[C@@H](CCN)C(=O)N[C@H](C(=O)NCC(N)=O)CSCC(=O)N[C@@H](Cc2cc(F)c(F)c(F)c2)C(=O)N(C)[C@@H](Cc2ccc(F)cc2)C(=O)N1C [Example 10571] ({CH2CO}-[Phe(3,4,5-F3)][NMePhe(4-F)][NMeNle][dP]DV[NMeF]D[dPip]WY[Dab]CG-NH2; thioether N-13), CCCC[C@H]1C(=O)N2CCC[C@@H]2C(=O)N[C@@H](CC(=O)O)C(=O)N[C@@H](C(C)C)C(=O)N(C)[C@@H](Cc2ccccc2)C(=O)N[C@@H](CC(=O)O)C(=O)N2CCCC[C@@H]2C(=O)N[C@@H](Cc2c[nH]c3ccccc23)C(=O)N[C@@H](Cc2ccc(O)cc2)C(=O)N[C@@H](CN)C(=O)N[C@H](C(=O)NCC(N)=O)CSCC(=O)N[C@@H](Cc2cc(F)c(F)c(F)c2)C(=O)N(C)[C@@H](Cc2ccc(F)cc2)C(=O)N1C [Example 10572] ({CH2CO}-[Phe(3,4,5-F3)][NMePhe(4-F)][NMeNle][dP]DV[NMeF]D[dPip]WY[Dap]CG-NH2; thioether N-13), CCCC[C@H]1C(=O)N2CCC[C@@H]2C(=O)N[C@@H](CC(=O)O)C(=O)N[C@@H](C(C)C)C(=O)N(C)[C@@H](Cc2ccccc2)C(=O)N[C@@H](CC(=O)O)C(=O)N2CCCC[C@@H]2C(=O)N[C@@H](Cc2c[nH]c3ccccc23)C(=O)N[C@@H](Cc2ccc(O)cc2)C(=O)N[C@@H](CO)C(=O)N[C@H](C(=O)NCC(N)=O)CSCC(=O)N[C@@H](Cc2cc(F)c(F)c(F)c2)C(=O)N(C)[C@@H](Cc2ccc(F)cc2)C(=O)N1C [Example 10573] ({CH2CO}-[Phe(3,4,5-F3)][NMePhe(4-F)][NMeNle][dP]DV[NMeF]D[dPip]WYSCG-NH2; thioether N-13), CCCC[C@H]1C(=O)N2CCC[C@@H]2C(=O)N[C@@H](CC(=O)O)C(=O)N[C@@H](C(C)C)C(=O)N(C)[C@@H](Cc2ccccc2)C(=O)N[C@@H](CC(=O)O)C(=O)N2CCCC[C@@H]2C(=O)N[C@@H](Cc2c[nH]c3ccccc23)C(=O)N[C@@H](Cc2ccc(O)cc2)C(=O)N[C@@H](CC(N)=O)C(=O)N[C@H](C(=O)NCC(N)=O)CSCC(=O)N[C@@H](Cc2cc(F)c(F)c(F)c2)C(=O)N(C)[C@@H](Cc2ccc(F)cc2)C(=O)N1C [Example 10574] ({CH2CO}-[Phe(3,4,5-F3)][NMePhe(4-F)][NMeNle][dP]DV[NMeF]D[dPip]WYNCG-NH2; thioether N-13), CCCC[C@H]1C(=O)N2CCC[C@@H]2C(=O)N[C@@H](CCC(=O)O)C(=O)N[C@@H](C(C)C)C(=O)N(C)[C@@H](Cc2ccccc2)C(=O)N[C@@H](CCC(=O)O)C(=O)N2CCCC[C@@H]2C(=O)N[C@@H](Cc2c[nH]c3ccccc23)C(=O)N[C@@H](Cc2ccc(O)cc2)C(=O)N[C@@H](CC(C)C)C(=O)N[C@H](C(=O)NCC(N)=O)CSCC(=O)N[C@@H](Cc2cc(F)c(F)c(F)c2)C(=O)N(C)[C@@H](Cc2ccc(F)cc2)C(=O)N1C [Example 10576] ({CH2CO}-[Phe(3,4,5-F3)][NMePhe(4-F)][NMeNle][dP]EV[NMeF]E[dPip]WYLCG-NH2; thioether N-13)
